Results on two molecules are retold here after paper PMC13534789, “Molecular Glue Degraders Enhance CAPRIN1‐Dependent Lysosomal Degradation of APP and Reduce Amyloid β in Alzheimer's Disease” (Advanced Science, 2026).

One experiment deals with rhCAPRIN1 and rhAPP. As to the kind of experiment: ThermoFluor assay with recombinant proteins. The format is binding, human. The settings on record: proteins 5 µM. How it is done: For the Thermofluor assay, Huynh's protocol was used with minor modifications. In brief, all proteins were used at a final concentration of 5 µM for this assay, and GloMelt Thermal Shift Protein Stability Kit (Biotium) was used at a final concentration of 0.5X. All experiments were carried out with QuantStudio 6 Flex (Applied Biosystems). SYBR was used as a reporter, and ROX was used as a passive reference according to the manufacturer's directions. Melting curve data were exported, followed by analysis with Boltzmann's sigmoidal curve in GraphPad Prism.

In the next experiment the test system is 5xFAD transgenic mice. As to the kind of experiment: Amyloid pathology in 5xFAD mice (IHC, Thioflavin S, ELISA). The format is in vivo, mouse. An excerpt: Female 5xFAD transgenic mice (9–10 weeks old) were used to evaluate the efficacy of 0152 in reducing amyloid pathology. Mice were housed under Indiana University standard laboratory conditions. For intraperitoneal (IP) administration, mice received either vehicle or 0152 (indicated concentrations) in a formulation consisting of 20% DMSO, 20% Cremophor EL, and 60% PBS. For oral (PO) administration, mice received either vehicle or 0152 (indicated concentrations) in a formulation consisting of 10% NMP (N‐methyl‐2‐pyrrolidone), 10% PG (Propylene Glycol), 5% Solutol HS‐15, and 75% Captisol (10% w/v in RO water). At the end of the treatment period, mice were sacrificed, and their brains were collected for histological analysis. Brain tissues were fixed in 10% Formalin, embedded in paraffin, and sectioned. Thioflavin S staining was performed to visualize β‐sheet‐rich amyloid plaques, and immunohistochemistry was conducted using the 6E10 monoclonal antibody to detect Aβ plagues. Body weights were recorded daily throughout the study.
iPSC‐Ns or HEK‐APP695WT were treated with drugs, and secreted Aβ42 peptides inculture soup were quantified using the Human Amyloid β1‐42 human ELISA kit (Thermo Fisher) according to the manufacturer's protocol. Mouse brain extraction was performed as previously described, with minor modifications. Mouse brain tissues were homogenized at a 1:10 weight‐to‐volume ratio in Tris‐buffered saline (TBS; 50 mM Tris, pH 7.4, 150 mM NaCl) supplemented with 2 mM EDTA and protease inhibitors. TBS‐homogenized brains were centrifuged for 1 h at 16 000 g. To extract total Aβ, including insoluble fractions, formic acid was added to a final concentration of 70%, and the samples were thoroughly mixed by pipetting. Homogenates were centrifuged at 100 000 g for 1 h at 4°C, and the resulting supernatants were collected. Prior to quantification, formic acid‐containing samples were neutralized with 1 M Tris base (pH 11). Aβ40 and Aβ42 levels were measured using human‐specific ELISA kits (Invitrogen) and normalized to total protein concentrations determined by the BCA assay (Thermo Scientific). For Aβ quantification in 3D organoids, 3D organoids’ processing and ELISA analysis were performed with minor modifications from previously described protocols. Briefly, cerebral organoids were lysed in RIPA buffer supplemented with protease and phosphatase inhibitor cocktails (Sigma), followed by sonication and incubation on ice for 60 min. Lysates were centrifuged at 13 000 rpm for 1 h at 4°C, and the supernatants were collected as the RIPA‐soluble fraction. The remaining pellets were resuspended in 70% formic acid, sonicated, and subsequently neutralized with Tris buffer to obtain the formic acid‐solubilized fraction. Aβ42 levels in both fractions were measured using human‐specific ELISA kits (Thermo Fisher) according to the manufacturer's instructions. Formic acid extracts were appropriately neutralized prior to ELISA. Aβ levels were normalized to total protein concentration determined by BCA assay.
Autopsy samples of brain tissues were provided, and immunohistochemistry was performed in the Department of Pathology and Laboratory Medicine, Indiana University School of Medicine, following the institutional protocols. Paraffin‐embedded 3D organoids and human AD patient brain samples were subjected to Hematoxylin and Eosin (H&E), synapses, GFAP, CAPRIN1 (polyclonal Rabbit anti‐CAPRIN1, 15112‐1‐AP, Proteintech), APP (monoclonal mouse anti‐APP/Aβ (6E10), 803001, Biolegend; MAB348, Millipore Sigma) in a Dako automated instrument using the Dako Flex detection system. The primary antibodies and secondary antibodies were used in colocalization experiments with human AD brain biopsy samples, then imaged using a confocal microscope system. Thioflavin‐S was stained with deparaffinization and rehydration of mouse brain sections using a series of xylene and ethanol washes. […]

In the next experiment the target is T1, 3R‐APP695‐HiBiT (Homo sapiens, UniProt P05067, K724R/K725R/K726R).
T1 construct: expressed in transfected cells
As to the kind of experiment: HiBiT luminescence and Aβ42 ELISA in 3R-APP695-HiBiT HEK cells. The format is cell-based. Particulars: KKK motif K649–K651 replaced by arginines, 72 h. An excerpt: To validate this interaction, we co‐expressed the C‐terminal domain of APP (HiBiT‐tagged C99) and the N‐terminus of FLAG‐tagged CAPRIN1 (residues 1–250) in HEK cells. Flag IP followed by western blotting confirmed the interaction between CAPRIN1 and APP (Figure 4H). To further delineate the interaction interface, we focused on a lysine‐rich (KKK) motif (K649–K651) within APP as a potential CAPRIN1‐interacting region, given its location within the cytosolic domain of C99 and its enrichment in basic residues that may mediate protein–protein interactions. To assess the functional relevance of this interaction in compound activity, we generated an APP695‐3R mutant, replacing the KKK motif (K649‐K651) with arginines by site‐directed mutagenesis. […] To further assess the role of this motif in APP‐CAPRIN1 interaction, we performed co‐immunoprecipitation experiments comparing WT‐ and 3R‐APP695‐HiBiT.
HEK293 cells were purchased from the American Type Culture Collection (ATCC). Lentiviral plasmids (pLV‐Hygro‐CMV‐hAPP, pLV‐Hygro‐CMV‐hAPP‐Hibit, and pLV‐Hygro‐CMV‐hAPP ‐3K to 3R‐Hibit) for APP695WT HEK293 and APP695‐Hibit HEK293 were generated in the third‐generation plasmid. […] Once expanded, clones were analyzed by ELISA for amyloid beta 42 (Aβ42), western blot for APP expression, and Hibit‐lytic assay (Promega). […]

Setting [1] is: 80 mg/kg IP twice per day, 30 days.

In the case of `N#Cc1cccc(NC(=O)Nc2nc3ccc(C(=O)N4CCOCC4)cc3s2)c1` [compound 0043], the “Thermal shift of recombinant CAPRIN1 and APP” value in the experiment with rhCAPRIN1 and rhAPP is listed as “thermal shifts for both proteins”.
Regarding `COc1cccc(NC(=O)Nc2nc3ccc(C(=O)N4CCOCC4)cc3s2)c1` [compound 0152], in the experiment with 5xFAD transgenic mice (setting [1]), the “APP/Aβ-positive areas and plaque sizes in subiculum and hippocampus, plaque sizes in cortex (IHC)” value is “significantly reduced”; the “Fibrillar Aβ plaques in subiculum (Thioflavin S)” value is reported as “drastically reduced fibrillar Aβ plaques”. For the same molecule, the “APP/Aβ-positive areas and plaque sizes in subiculum (IHC, Thioflavin S)” value in the experiment with 5xFAD transgenic mice (80 mg/kg oral gavage twice daily, 30 days) is listed as “significant reduction”. In the experiment with 5xFAD transgenic mice (100 mg/kg IP daily, 24 days), the “APP/Aβ-positive area and amyloid plaque size, hippocampus and subiculum (IHC)” value is given as “significant reductions”; the “Aβ40 and Aβ42 levels in hemispheric brain lysates (ELISA)” value was “marked decreases”; the “Fibrillar Aβ plaques in subiculum (Thioflavin S)” value is on record as “reduced fibrillar Aβ plaques”; the “Plaque burden in cortex (IHC)” value is listed as “minimal changes”. Also, on 3R‐APP695‐HiBiT, the “Response of 3R-APP695-HiBiT cells (HiBiT luminescence, Aβ42 ELISA)” value was “no response”.
